Here are results for one molecule from patent publication US20050058600A1, “3,3'-Diindolylmethane antiandrogenic compositions” (priority 2003, published 2005).

In one assay the test system is LNCaP cells. Briefly: [3H]Thymidine incorporation (DNA synthesis) in LNCaP cells. Format: cell-based, human. Particulars: uninduced and androgen-induced (1 nM DHT) growth conditions. On the technique in general: Incorporation of labelled thymidine or its analogues reports DNA synthesis.
Assay [1] deals with T1, AR (Homo sapiens, UniProt P10275).
T1 construct: expressed in transfected cells; host or cells: PC-3
T1 sequence (P10275 1-920): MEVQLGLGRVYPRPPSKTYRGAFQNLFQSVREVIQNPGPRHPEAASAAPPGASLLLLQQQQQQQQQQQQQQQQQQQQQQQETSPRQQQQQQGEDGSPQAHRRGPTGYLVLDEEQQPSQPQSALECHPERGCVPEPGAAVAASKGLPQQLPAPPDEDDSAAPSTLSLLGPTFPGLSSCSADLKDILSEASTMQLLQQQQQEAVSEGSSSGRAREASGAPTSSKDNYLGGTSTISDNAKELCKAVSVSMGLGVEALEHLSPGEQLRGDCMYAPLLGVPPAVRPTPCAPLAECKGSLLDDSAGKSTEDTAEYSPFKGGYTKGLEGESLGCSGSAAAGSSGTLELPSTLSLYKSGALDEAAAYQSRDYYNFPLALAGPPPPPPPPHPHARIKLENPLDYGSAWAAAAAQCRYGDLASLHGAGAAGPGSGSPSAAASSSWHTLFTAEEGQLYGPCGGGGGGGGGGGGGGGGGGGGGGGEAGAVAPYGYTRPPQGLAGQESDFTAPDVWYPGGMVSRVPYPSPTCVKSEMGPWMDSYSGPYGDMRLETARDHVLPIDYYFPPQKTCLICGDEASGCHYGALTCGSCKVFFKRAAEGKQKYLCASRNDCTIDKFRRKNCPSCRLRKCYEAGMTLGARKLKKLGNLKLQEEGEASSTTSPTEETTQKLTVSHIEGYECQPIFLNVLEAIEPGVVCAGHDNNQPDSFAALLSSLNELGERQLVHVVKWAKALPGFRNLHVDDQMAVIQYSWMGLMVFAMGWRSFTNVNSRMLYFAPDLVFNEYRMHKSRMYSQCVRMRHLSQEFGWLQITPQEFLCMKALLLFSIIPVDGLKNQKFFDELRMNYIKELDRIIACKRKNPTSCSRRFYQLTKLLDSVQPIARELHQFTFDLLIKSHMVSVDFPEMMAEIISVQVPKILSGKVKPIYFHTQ
The assay can be described thus: pPSA-Luc / MMTV-Luc reporter assay in PC-3 cells with or without AR expression vector. The class given is cell-based. Particulars: PC-3 co-transfected with AR expression vector; pPSA-Luc, same with MMTV-Luc. The protocol:
(§1) Plasmid Reporters and Expression Vectors. The ARE responsive luciferase reporter plasmid, pPSA-630 luciferase (pPSA-Luc) was prepared as previously described (29). pPSA-Luc contains the PSA promoter region (−630 to 12) with three AREs, all of which are critical to the activity of the pPSA-Luc promoter. The MMTV-Luc contains one consensus ARE and the expression vector, pCMV-hAR constitutively expresses a fully functional human androgen receptor. The pCMV-GFP-rAR was prepared as previously described (30).
(§2) Transient Transfections with Reporters and Luciferase Assay. LNCaP and PC-3 cells were transfected, with some modifications, as previously described (20). For AR transactivation, cells were transfected with 0.1 μg of MMTV-Luc or pPSA-Luc per plate. Co-transfection experiments with pCMV-hAR or pCMV-GFP-rAR, 0.1 μg per plate was also used. For experiments involving GFP fluorescence imaging, treatments were not added until 30 h after transfection.
On the technique in general: In a reporter assay the amount or activity of a reporter protein is the signal.

In assay [2] the test system is AR. The description is as above. Format: cell-based, human. The protocol:
as §1, §2

The test system of the next assay is PSA protein. Briefly: Western blot of intracellular and secreted PSA in LNCaP cells. Format: cell-based, human. Particulars: DHT co-treatment. As to the method: Analysis of Intracellular and Secreted PSA. LNCaP cells growing on 100 mm plates were treated for 24 h. Cells were lysed as previously described (20) for intracellular PSA analysis. For secreted proteins, spent medium was collected and concentrated 18-fold using Millipore Centriprep YM-10 following manufacturer's protocol (Bedford, Mass.). Protease inhibitors were added and the proteins were immunoprecipitated with 3 μg/mL monoclonal free PSA antibody (Biodesign International) for 2 h and co-immunoprecipitated overnight at 4° C. with Protein A/G agarose (Santa Cruz Biotechnology, Santa Cruz, Calif.) on a rotator. The samples were then subjected to Western blot analysis as described previously (20) using a monoclonal PSA (sc-7316) primary antibody and a goat anti-mouse-IgG-AP secondary antibody.
In general terms: A western blot detects proteins with antibodies after separation by electrophoresis.

The next assay deals with T2, mutant AR of LNCaP cells (Homo sapiens, UniProt P10275, T878A).
T2 construct: 95 μL of either LNCaP cell extracts or recombinant AR protein; endogenous in cells; host or cells: LNCaP
T2 sequence (P10275 1-920 T878A): T1 sequence (P10275 1-920) with T878A
Briefly: Competitive [3H]DHT binding assay, LNCaP cell extracts. Particulars: micromolar concentration range.

Another assay relates to breast cancer cells. Particulars: in culture; cited from earlier work.

Where a chain is given by its changes, count along the chain named.

Procedure for mutant AR of LNCaP cells: Hormone Binding Assay. LNCaP cells were grown in 5% DCC-FBS-DMEM medium supplemented with 4.0 g/L glucose and 3.7 g/L sodium bicarbonate and harvested in HBS containing 1.5 mM EDTA by scraping with a rubber policeman. The cells were placed on ice, collected by centrifugation, washed with ice-cold TKEG buffer (20 mM Tris-HCl pH 7.4, 50 mM KCl, 1 mM EDTA, 0.1 mM PMSF, and 10% glycerol) and resuspended in 250 μL/plate homogenization buffer (50 mM Tris-HCl pH 7.4, 1.5 mM EDTA, 10 mM sodium molybdate, 2.5 mM β-mercaptoethanol, 50 mM KCl, 0.1 mM PMSF, and 10% glycerol). Cells were homogenized using a Polytron apparatus at medium speed for 1 min on ice. The homogenates were centrifuged at 50,000 rpm in 4° C. for 60 min. The supernatant solution was divided into 1.0 mL aliquots, quickly frozen in a dry-ice/ethanol bath and stored at −80° C. Protein concentration was determined by the Bradford assay using bovine serum albumin as the standard. […] Competitive ligands were added as 1.0 μL of 100× solution in DMSO. After mixing, 95 μL of either LNCaP cell extracts or recombinant AR protein (PanVera, Madison, Wis.) was added and the solutions were vortexed and incubated at room temperature for 2-3 h. […]

For the molecule `c1ccc2c(Cc3c[nH]c4ccccc34)c[nH]c2c1` [DIM, 3,3′-diindolylmethane], in the assay with LNCaP cells, the “inhibition of DNA synthesis” value is given as “up to 90%”. Further, the “inhibition of DHT-induced transactivation” value against AR [1] was “concentration-dependent inhibition”. In the assay on AR [2] (PC-3 without co-transfection of an AR expression vector), the “effect on pPSA-Luc reporter” value is reported as “has no effect”. Further, the “transactivation of reporter genes by compound alone” value in the assay on AR [2] (either cell line, with or without co-transfection of wild-type AR) is “did not induce transactivation”. The “levels of intracellular and secreted PSA protein” value in the assay on PSA protein is “reduced levels of intracellular and secreted PSA protein to background concentrations”. The “competition with labeled DHT for binding to the AR” value at mutant AR of LNCaP cells is given as “competes with labeled DHT for binding to the AR”. In the assay with breast cancer cells, the “programmed cell death in human breast tumor cells” value is “induced programmed cell death” and the “proliferation of breast cancer cells” value was “inhibit proliferation”.
